Type in all cases: cell-based
The target of data set [1] is T1, human TLR7 (Homo sapiens, UniProt Q9NYK1).
T1 construct: All full-length TLR fragments were cloned into pGEM-T Easy vector; expressed in transfected cells; host or cells: 293 HEK cells (ATCC), transient electroporation with pcDNA3.1(-) TLR expression plasmid
T1 sequence (Q9NYK1 27-1049): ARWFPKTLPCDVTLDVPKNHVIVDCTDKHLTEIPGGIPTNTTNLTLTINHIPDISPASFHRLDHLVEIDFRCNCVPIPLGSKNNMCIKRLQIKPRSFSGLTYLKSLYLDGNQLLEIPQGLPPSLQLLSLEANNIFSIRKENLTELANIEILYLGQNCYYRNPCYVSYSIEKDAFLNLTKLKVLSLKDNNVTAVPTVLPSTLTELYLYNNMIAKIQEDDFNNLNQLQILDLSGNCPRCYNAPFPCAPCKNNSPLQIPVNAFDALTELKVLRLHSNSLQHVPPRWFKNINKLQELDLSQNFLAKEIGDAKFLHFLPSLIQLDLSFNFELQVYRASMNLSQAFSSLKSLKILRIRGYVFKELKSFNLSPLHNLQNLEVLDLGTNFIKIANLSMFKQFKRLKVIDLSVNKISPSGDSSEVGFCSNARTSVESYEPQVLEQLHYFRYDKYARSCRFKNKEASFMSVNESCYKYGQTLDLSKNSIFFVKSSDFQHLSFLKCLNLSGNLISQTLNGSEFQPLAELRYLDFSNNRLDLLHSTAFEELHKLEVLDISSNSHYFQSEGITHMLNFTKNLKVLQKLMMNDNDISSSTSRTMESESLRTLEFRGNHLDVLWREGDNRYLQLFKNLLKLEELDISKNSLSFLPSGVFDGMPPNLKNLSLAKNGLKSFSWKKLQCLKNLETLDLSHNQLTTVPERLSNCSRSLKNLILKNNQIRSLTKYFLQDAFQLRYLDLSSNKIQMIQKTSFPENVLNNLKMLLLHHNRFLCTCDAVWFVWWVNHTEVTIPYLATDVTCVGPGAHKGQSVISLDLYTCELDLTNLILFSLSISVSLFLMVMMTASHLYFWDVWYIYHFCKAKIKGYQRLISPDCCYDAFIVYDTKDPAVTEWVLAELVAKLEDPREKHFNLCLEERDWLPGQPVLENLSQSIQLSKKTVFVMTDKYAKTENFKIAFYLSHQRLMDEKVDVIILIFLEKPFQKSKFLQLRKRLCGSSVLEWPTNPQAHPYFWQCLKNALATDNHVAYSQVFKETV
Briefly: NF-κB luciferase reporter in 293 HEK cells transfected with human TLR7. The settings on record: for human TLR7 response to modified guanosine ribonucleosides: FIG. 18. Here is the method: FIG. 12 depicts the responsiveness of human TLR7 and human TLR8 to ribonucleosides. It was determined that the response by human PBMC to RNA or RVC was mediated by TLR7 or TLR8 and further that the response could be driven by ribonucleosides only. Human 293 cells were either mock-transfected or transfected with human TLR7 or human TLR8 and monitored for responsiveness to ribonucleosides. The open reading frames of human TLR7 (hTLR7) and human TLR8 (hTLR8) were amplified by PCR from a cDNA library of human PBMC using the following primers pairs: for TLR7, 5′-[…]-3′ (SEQ ID NO:15) and 5′-[…]-3′ (SEQ ID NO:16); and for TLR8, 5′-[…]-3′ (SEQ ID NO:17) and 5′-[…]-3′ (SEQ ID NO:18). The sequence information for primer selection was obtained from Genbank accession numbers AF240467 and AF245703. All full-length TLR fragments were cloned into pGEM-T Easy vector (Promega, Mannheim, Germany), excised with NotI, cloned into the expression vector pcDNA 3.1(−) (Invitrogen, Karlsruhe, Germany) and sequenced. Sequences of the coding region of hTLR7 and hTLR8 correspond to the accession numbers AF240467 (SEQ ID NO:25) and AF245703, respectively (SEQ ID NO:29).
For monitoring transient NF-κB activation, 3×10^6 293 HEK cells (ATCC, VA, USA) were electroporated at 200 volt and 960 μF with 1 μg TLR expression plasmid, 20 ng NF-κB luciferase reporter-plasmid and 14 μg of pcDNA3.1(−) plasmid as carrier in 400 μl RPMI medium supplemented with 25% fetal bovine serum (FCS). Cells were seeded at 10^5 cells per well and after over night culture stimulated with R-848 (denoted in FIG. 12 as X; commercially synthesized by GLSynthesis Inc., Worcester, Mass., USA), RVCs or ribonucleosides for a further 7 hours. Stimulated cells were lysed using reporter lysis buffer (Promega, Mannheim, Germany), and lysate was assayed for luciferase activity using a Berthold luminometer (Wildbad, Germany).
On the technique in general: In a reporter assay the amount or activity of a reporter protein is the signal.

Data set [2] relates to human PBMC. Description: Human PBMC TNF-α secretion, ELISA. The settings on record: for TNF-α max / EC50: human PBMC overnight, including DOTAP; for EC50: read-out: TNF-α EC50. Here is the method: (§1) Human peripheral blood mononuclear cells (PBMCs) were isolated from healthy donors, plated at 3×10^5 cells/well, stimulated in vitro with various test and control immunostimulatory agents for 16 hours, and then analyzed by enzyme-linked immunosorbent assay (ELISA) using matched antibody pairs from BD-Pharmingen for secreted cytokines IL-12 p40 and TNF-α, performed according to the manufacturer's protocol. Also included were certain negative controls, including medium alone and DOTAP (10 μg/200 μl culture well; “Liposomes”) alone. The control immunostimulatory agents included the imidazoquinolone R-848 (2 μg/ml), lipopolysaccharide (LPS; 1 μg/ml), Pam3Cys (5 μg/ml), poly IC (50 μg/ml), and CpG DNA (50 μg/ml). These are reported ligands for TLR7, TLR4, TLR2, TLR3, and TLR9, respectively. Test immunostimulatory agents included the following RNA molecules, each at 50 μg/ml, with and without DOTAP (10 μg total “with Liposomes” and “without Liposomes”, respectively): GUGUUUAC alone; GUAGGCAC alone; GUGUUUAC in combination with GUAGGCAC; GUAGGA; GAAGGCAC; CUAGGCAC; CUCGGCAC; and CCCCCCCC. These RNA oligonucleotides each contained a phosphorothioate linkage between the penultimate and 3′ terminal nucleoside.
The experiments described in the preceding example were repeated with varied concentrations of RNA oligonucleotides in order to assess the dose-response behavior of human PBMCs to G,U-containing RNA oligonucleotides of the invention. A total of 10, 3 or 1 μg RNA was added to 10 μg DOTAP and then added to the 200 μl culture wells. After 16 hours IL-12 p40 and TNF-α ELISAs were performed as described in Example 1.
(§2) In order to investigate the possibility of using cholesteryl ester-modified RNA oligomer in place of RNA oligomer plus cationic lipid, RNA oligomer GUGUGUGU was prepared with (R 1058) and without (R 1006) a 3′ cholesteryl ester modification. These two RNA oligomers with and without DOTAP, were added over a range of concentrations to overnight cultures of human PBMC. Culture supernatants were harvested, and human TNF-α, IL-12 p40, and IFN-α were measured by ELISA using matched antibody pairs from BD-Pharmingen according to the manufacturer's protocol.
(§3) RNA oligomers GUGUGUGU, GUGUGUG, GUGUGU, GUGUG, GUGU, GUG, and GU, with and without DOTAP, were added over a range of concentrations to overnight cultures of human PBMC. Culture supernatants were harvested, and human TNF-α, IL-12 p40, and IFN-α were measured by ELISA using matched antibody pairs from BD-Pharmingen according to the manufacturer's protocol.
(§4) RNA oligomers, with and without DOTAP, were added over a range of concentrations to overnight cultures of human PBMC. Culture supernatants were harvested, and human TNF-α, IL-12 p40, and IFN-α were measured by ELISA using matched antibody pairs from BD-Pharmingen according to the manufacturer's protocol.
(§5) Human PBMC were cultured overnight in the presence of added DNA:RNA conjugate, with and without DOTAP. Culture supernatants were harvested and human TNF-α, IL-6, IL-12 p40, IP-10, and IFN-α were measured by ELISA using matched antibody pairs from BD-Pharmingen according to the manufacturer's protocol.
Human PBMC were cultured overnight in the presence of various concentrations (1, 3, and 10 μg/ml) of tRNA obtained from wheat germ, bovine, yeast, and E. coli sources, added to the culture medium with and without DOTAP. Culture supernatants were harvested and human TNF-α and IL-12 p40 were measured by ELISA using matched antibody pairs from BD-Pharmingen according to the manufacturer's protocol. […] In addition, E. coli tRNA at 3 and 10 μg/ml induced minor amounts of both cytokines even without DOTAP. […]
FIG. 10 depicts the responsiveness of human PBMC to stringent response factor (SRF). SRF is produced by rapidly growing bacteria (in this case Listeria monocytogenes) in rich media until their late log phase. The bacteria were pelleted and resuspended in an equal volume of PBS for 24 h. The mixture is centrifuged to remove the bacteria. […]

The test system of data set [3] is human PBMC. Briefly: Human PBMC IP-10 secretion, ELISA. The settings on record: Table 4, DNA:RNA conjugates; human PBMC overnight; including DOTAP. Here is the method:
as §5
On the technique in general: ELISA stands for enzyme-linked immunosorbent assay.

The subject of data set [4] is human PBMC. Description: Human PBMC IL-6 secretion, ELISA. The settings on record: Table 4, DNA:RNA conjugates; human PBMC overnight; including DOTAP. How it is done:
as §5

In data set [5] the test system is human PBMC. Description: Human PBMC IFN-α secretion, ELISA. The note with it: Table 2, oligomer length, human PBMC overnight, including DOTAP. How it is done: as §2, §3, §4
In like manner, an all-phosphodiester 40-mer capable of forming a stem-loop structure and having a base sequence as provided by 5′-[…]-3′ (R 1041; SEQ ID NO:10) was synthesized and tested in overnight culture with human PBMC.

In data set [6] the test system is human PBMC. Briefly: Human PBMC IL-12 p40 secretion, ELISA. The settings on record: Table 2, oligomer length; human PBMC overnight; including DOTAP. How it is done: as §1
The experiments described in the preceding example were repeated with varied concentrations of RNA oligonucleotides in order to assess the dose-response behavior of human PBMCs to G,U-containing RNA oligonucleotides of the invention. A total of 10, 3 or 1 μg RNA was added to 10 μg DOTAP and then added to the 200 μl culture wells. After 16 hours IL-12 p40 and TNF-α ELISAs were performed as described in Example 1. […]
RNA oligomers GUGUGUGU, GUGUGUG, GUGUGU, GUGUG, GUGU, GUG, and GU, with and without DOTAP, were added over a range of concentrations to overnight cultures of human PBMC. Culture supernatants were harvested, and human TNF-α, IL-12 p40, and IFN-α were measured by ELISA using matched antibody pairs from BD-Pharmingen according to the manufacturer's protocol. […]

Oligonucleotides are written 5' to 3', each unit as a sugar letter and its base; * is a phosphorothioate linkage, no mark a phosphodiester; rarer units and linkages stand in square brackets, end groups in braces. Plain capitals give the bases only. d = 2'-deoxy (DNA); r = 2'-OH (RNA)

As to `Nc1nc2c(nc(Br)n2[C@@H]2O[C@H](CO)[C@@H](O)[C@H]2O)c(=O)[nH]1` [8-bromo-guanosine, reference compound], the “human TLR7 response to modified guanosine ribonucleosides” value (from here on “human TLR7 response”) in data set [1] is listed as “responded mildly”.

`Nc1nc2c(ncn2[C@H]2C[C@H](O)[C@@H](CO)O2)c(=O)[nH]1` [deoxy form of guanosine]: in data set [1], the “human TLR7 response” value is “responded mildly”.

`Nc1nc2c(ncn2[C@@H]2O[C@H](CO)[C@@H](O)[C@H]2O)c(=O)[nH]1` [guanosine]: in data set [1] (FIG. 12, transient transfectants, 7 hours stimulation), the “response of TLR7 transfectants (NF-κB luciferase)” value is “responded”. Besides, in data set [1] (FIG. 13), the “responsiveness of TLR7 to ribonucleosides and mixtures of two” value is given as “responded best”. Moreover, the “human TLR7 response” value in data set [1] is recorded as “responsive”. Also, the “stimulation of PBMC to produce TNF” value in data set [2] (Example 14, in the absence of vanadate) is on record as “effective”.

Broadly, the EC50 is the midpoint of the concentration-response curve. In data set [3], “G*U*G*U*G*U*G*U*dT*dT*dT*dT*dT*dT (rG*rU*rG*rU*rG*rU*rG*rU*dT*dT*dT*dT*dT*dT) [R 1062]” had an EC50 of 100 nM and an IP-10 max of 400 pg/mL. In data set [4], this compound returned an EC50 of 400 nM and an IL-6 max of 28000 pg/mL. Also, in data set [2] (Table 4, DNA:RNA conjugates), the TNF-α max amounted to 80000 pg/mL and the EC50 turned out to be 300 nM.

In the case of GUGUGUG [R 1048], the IFN-α max in data set [5] was 2700 pg/mL. The EC50 in data set [5] (read-out: IFN-α EC50) was 4600 nM. In data set [6], the EC50 worked out at 2600 nM and the “IL-12 p40 max” value worked out at 10000 pg/mL. Besides, in data set [2] (Table 2, oligomer length), the TNF-α max was determined as 30000 pg/mL and the EC50 is 2200 nM.

In data set [3], “dG*dG*dG*dG_dG_G*U*G*U*G*U*G*U (dG*dG*dG*dGdGrG*rU*rG*rU*rG*rU*rG*rU) [R 1061]” displayed an EC50 of 1100 nM and an IP-10 max of 180 pg/mL. For the same compound, in data set [4], the EC50 is more than 20000 nM and the IL-6 max amounted to 10000 pg/mL. Also, in data set [2] (Table 4, DNA:RNA conjugates), the TNF-α max stood at 20000 pg/mL and the EC50 was 4300 nM.

For “dT*dT*dT*dT*dT*G*U*G*U*G*U*G*U (dT*dT*dT*dT*dT*rG*rU*rG*rU*rG*rU*rG*rU) [R 1063]”, in data set [3], the concentration giving a half-maximal response (EC50) was found to be 100 nM and the IP-10 max stood at 250 pg/mL. Further, in data set [4], the EC50 worked out at 800 nM and the IL-6 max is 28000 pg/mL. Also, in data set [2] (Table 4, DNA:RNA conjugates), the TNF-α max was 60000 pg/mL and the EC50 was 300 nM.

For the origin of these results see patent publication US9428536B2, “Immunostimulatory G, U-containing oligoribonucleotides” (Zoetis Belgium SA, priority 2002, dated 2016).
